Experimental findings from patent publication US20080145313A1, “Compositions and Methods for the Treatment and Prevention of Neoplastic Disorders” (Genesis Research & Development Corporation Limited, priority 2006, published 2008) are described below.

Series [1] relates to target transcript mRNA in A549 cells. As to the kind of experiment: Level of mRNA of target transcript in A549 cells by quantitative RT-PCR (Tables 12 and 13). The class given is cell-based, human. As to conditions: 24 h post-transfection. In outline:
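A549 cells were transfected with siRNA at 0.1, 1.0 and 10 nM. RNA was extracted 24 h later, reverse-transcribed with random primers, and target mRNA quantified by SYBR Green qRT-PCR. Values were normalised to housekeeping genes HPRT and Lamin.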

In another series the test system is A549 cells. Nature of the series: Growth inhibition of siRNA-transfected A549 cells, SYBR Green I DNA content. The class given is cell-based, human. To be noted: 10 nM siRNA, DNA content 96 hours after transfection; for Growth Inhibition in A549 cells by 10 nM siRNA: transporter gene targets. In outline: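 A549 cells reverse-transfected with 10 nM Stealth siRNAs via Lipofectamine RNAiMAX, seeded at 5×10^3 cells/cm^2 in RPMI 1640/10% FCS; non-specific siRNA control. DNA content read 96 h post-transfection by SYBR Green I fluorescence (ex 485/em 535 nm) after freeze-thaw and Triton X-100 lysis; mean of three wells.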

Consider “SEQ ID NO: 4910: siRNA targeting SLC5A6 (SMVT1) (chain 1 AAGGCAAGGCCTCTGGAAAGCATGA; chain 2 AAGGCAAGGCCUCUGGAAAGCAUGA; Antisense strand given in DNA and RNA notation, chemistry not given here; one strand in two spellings)”, for which, in series [1] (0.1 nM siRNA), the “mRNA knockdown of transporter gene target transcript, 0.1 nM” value was “− (<50% mRNA knockdown)”. Moreover, the “mRNA knockdown of transporter gene target transcript, 1 nM” value in series [1] (1 nM siRNA) is listed as “+ (50-70% mRNA knockdown)”. Further, the “Growth Inhibition in A549 cells by 10 nM siRNA” value in the series with A549 cells is on record as “− (no growth inhibition)”.

With “SEQ ID NO: 4926: siRNA targeting SLC25A1 (CIC) (chain 1 AGTCCCACGTGTTCCGGTATTTGTG; chain 2 AGUCCCACGUGUUCCGGUAUUUGUG; chemistry not given here; one strand in two spellings)”, in series [1] (0.1 nM siRNA), the “mRNA knockdown of transporter gene target transcript, 0.1 nM” value is given as “++ (70-90% mRNA knockdown)”. Moreover, the “mRNA knockdown of transporter gene target transcript, 1 nM” value in series [1] (1 nM siRNA) is on record as “++ (70-90% mRNA knockdown)”. In addition, the “Growth Inhibition in A549 cells by 10 nM siRNA” value in the series with A549 cells is given as “++ (inhibits by at least 75%)”.

Consider “SEQ ID NO: 4968: siRNA targeting ATP7B (chain 1 ATATCCCGTGGACCGATAATTTCCG; chain 2 AUAUCCCGUGGACCGAUAAUUUCCG; chemistry not given here; one strand in two spellings)”, for which, in series [1] (0.1 nM siRNA), the “mRNA knockdown of transporter gene target transcript, 0.1 nM” value is “− (<50% mRNA knockdown)”. Besides, in series [1] (1 nM siRNA), the “mRNA knockdown of transporter gene target transcript, 1 nM” value was “++ (70-90% mRNA knockdown)”. Moreover, in the series on A549 cells, the “Growth Inhibition in A549 cells by 10 nM siRNA” value is reported as “− (no growth inhibition)”.

Take “SEQ ID NO: 4897: siRNA targeting SLC2A5 (GLUT5) (chain 1 TTACAGACCACAGCAACGTCAAGGG; chain 2 UUACAGACCACAGCAACGUCAAGGG; Antisense strand given in DNA and RNA notation, chemistry not given here; one strand in two spellings)”: the “mRNA knockdown of transporter gene target transcript, 0.1 nM” value in series [1] (0.1 nM siRNA) is on record as “+++ (>90% mRNA knockdown)”. Moreover, in series [1] (1 nM siRNA), the “mRNA knockdown of transporter gene target transcript, 1 nM” value is given as “+++ (>90% mRNA knockdown)”. Further, the “Growth Inhibition in A549 cells by 10 nM siRNA” value in the series on A549 cells is “++ (inhibits by at least 75%)”.

Consider “SEQ ID NO: 4927: siRNA targeting SLC25A1 (CIC) (chain 1 TGCCTTTGTAGAATGCCTTGAGCCC; chain 2 UGCCUUUGUAGAAUGCCUUGAGCCC; chemistry not given here; one strand in two spellings)”, for which, in series [1] (0.1 nM siRNA), the “mRNA knockdown of transporter gene target transcript, 0.1 nM” value was “++ (70-90% mRNA knockdown)”. The “mRNA knockdown of transporter gene target transcript, 1 nM” value in series [1] (1 nM siRNA) is on record as “++ (70-90% mRNA knockdown)”. Also, the “Growth Inhibition in A549 cells by 10 nM siRNA” value with A549 cells is on record as “− (no growth inhibition)”.

Regarding “SEQ ID NO: 4889: siRNA targeting SLC1A5 (ASCT2) (chain 1 TTGAAGAAGCGGATAAGCAGCTCCC; chain 2 UUGAAGAAGCGGAUAAGCAGCUCCC; Antisense strand given in DNA and RNA notation, chemistry not given here; one strand in two spellings)”, the “mRNA knockdown of transporter gene target transcript, 0.1 nM” value in series [1] (0.1 nM siRNA) is “++ (70-90% mRNA knockdown)”. For the same substance, in series [1] (1 nM siRNA), the “mRNA knockdown of transporter gene target transcript, 1 nM” value is recorded as “++ (70-90% mRNA knockdown)”. Also, the “Growth Inhibition in A549 cells by 10 nM siRNA” value with A549 cells was “− (no growth inhibition)”.

On to “SEQ ID NO: 4934: siRNA targeting SLC29A2 (ENT2) (chain 1 TGTGAAGACCAACACAAGGCACAGC; chain 2 UGUGAAGACCAACACAAGGCACAGC; chemistry not given here; one strand in two spellings)”, for which the “mRNA knockdown of transporter gene target transcript, 0.1 nM” value in series [1] (0.1 nM siRNA) is “+ (50-70% mRNA knockdown)”. The “mRNA knockdown of transporter gene target transcript, 1 nM” value in series [1] (1 nM siRNA) is “− (<50% mRNA knockdown)”. Besides, the “Growth Inhibition in A549 cells by 10 nM siRNA” value in the series with A549 cells is “− (no growth inhibition)”.

In the case of “SEQ ID NO: 4962: siRNA targeting ATP6V1F (chain 1 TGGAGTCCTTGGCGGCGTCATATGG; chain 2 UGGAGUCCUUGGCGGCGUCAUAUGG; chemistry not given here; one strand in two spellings)”, the “mRNA knockdown of transporter gene target transcript, 0.1 nM” value in series [1] (0.1 nM siRNA) is “− (<50% mRNA knockdown)”. Moreover, the “mRNA knockdown of transporter gene target transcript, 1 nM” value in series [1] (1 nM siRNA) is reported as “+ (50-70% mRNA knockdown)”. Also, the “Growth Inhibition in A549 cells by 10 nM siRNA” value in the series on A549 cells is reported as “− (no growth inhibition)”.

In the case of “SEQ ID NO: 4952: siRNA targeting ATP6V1B2 (chain 1 TACAACAGGACCTCTGTCAATGGGT; chain 2 UACAACAGGACCUCUGUCAAUGGGU; chemistry not given here; one strand in two spellings)”, the “mRNA knockdown of transporter gene target transcript, 0.1 nM” value in series [1] (0.1 nM siRNA) is on record as “− (<50% mRNA knockdown)”. For the same substance, the “mRNA knockdown of transporter gene target transcript, 1 nM” value in series [1] (1 nM siRNA) is listed as “+ (50-70% mRNA knockdown)”. Also, the “Growth Inhibition in A549 cells by 10 nM siRNA” value with A549 cells is reported as “− (no growth inhibition)”.

Consider “SEQ ID NO: 4958: siRNA targeting ATP6V1E1 (chain 1 AGGAATTGCCTTCTGCACTGCAGCC; chain 2 AGGAAUUGCCUUCUGCACUGCAGCC; chemistry not given here; one strand in two spellings)”, for which the “mRNA knockdown of transporter gene target transcript, 0.1 nM” value in series [1] (0.1 nM siRNA) is “+ (50-70% mRNA knockdown)”. Moreover, the “Growth Inhibition in A549 cells by 10 nM siRNA” value with A549 cells is reported as “− (no growth inhibition)”.

Regarding “SEQ ID NO: 5306: Stealth siRNA targeting RRM2 (chain 1 TGTCCAGGTGTTTGAACATCAGGC; chain 2 UGUACCAGGUGUUUGAACAUCAGGC; Stealth siRNA, chemical pattern not given here)”, in series [1] (0.1 nM siRNA), the “mRNA knockdown of energy and metabolism gene target transcript, 0.1 nM” value is recorded as “++ (70-90% mRNA knockdown)”. In series [1] (1 nM siRNA), the “mRNA knockdown of energy and metabolism gene target transcript, 1 nM” value is listed as “+ (50-70% mRNA knockdown)”. Besides, the “Growth Inhibition in A549 cells” value in the series with A549 cells was “++ (inhibits by at least 75%)”.

On to “SEQ ID NO: 4938: siRNA targeting ATP2B1 (PMCA1) (chain 1 AAATCTTGTCTATCCTCTCTTGCTC; chain 2 AAAUCUUGUCUAUCCUCUCUUGCUC; chemistry not given here; one strand in two spellings)”, for which, in series [1] (0.1 nM siRNA), the “mRNA knockdown of transporter gene target transcript, 0.1 nM” value is “+ (50-70% mRNA knockdown)”. Also, in series [1] (1 nM siRNA), the “mRNA knockdown of transporter gene target transcript, 1 nM” value is reported as “++ (70-90% mRNA knockdown)”. In the series with A549 cells, the “Growth Inhibition in A549 cells by 10 nM siRNA” value is “− (no growth inhibition)”.

Regarding “SEQ ID NO: 4971: siRNA targeting ABCC4 (MRP4) (chain 1 CAATAATGGTGTTCAATCTGTGTGC; chain 2 CAAUAAUGGUGUUCAAUCUGUGUGC; chemistry not given here; one strand in two spellings)”, the “mRNA knockdown of transporter gene target transcript, 0.1 nM” value in series [1] (0.1 nM siRNA) is “− (<50% mRNA knockdown)”. Also, the “mRNA knockdown of transporter gene target transcript, 1 nM” value in series [1] (1 nM siRNA) is recorded as “++ (70-90% mRNA knockdown)”. In the series on A549 cells, the “Growth Inhibition in A549 cells by 10 nM siRNA” value was “− (no growth inhibition)”.

On to “SEQ ID NO: 4965: siRNA targeting ATP7A (chain 1 TTATAATGCAGTGTCATCATCTTCC; chain 2 UUAUAAUGCAGUGUCAUCAUCUUCC; chemistry not given here; one strand in two spellings)”, for which the “mRNA knockdown of transporter gene target transcript, 0.1 nM” value in series [1] (0.1 nM siRNA) was “− (<50% mRNA knockdown)”. Moreover, the “mRNA knockdown of transporter gene target transcript, 1 nM” value in series [1] (1 nM siRNA) is listed as “− (<50% mRNA knockdown)”. For the same substance, the “Growth Inhibition in A549 cells by 10 nM siRNA” value with A549 cells was “− (no growth inhibition)”.
